Laboratory results reported in ChEMBL document CHEMBL3352762 (J Med Chem, 2014).
Active and inactive are the calls of the source. The calls are words filed in the database; no cut-off is given here.

Key:
[1] = target: T1, Urotensin-2 receptor (Homo sapiens, UniProt Q9UKP6); assay: Displacement of [125I]urotensin-2 from human recombinant UT receptor expressed in CHO-K1 cells by scintillation counting method; type: cell-based
T1 sequence (Q9UKP6 whole entry): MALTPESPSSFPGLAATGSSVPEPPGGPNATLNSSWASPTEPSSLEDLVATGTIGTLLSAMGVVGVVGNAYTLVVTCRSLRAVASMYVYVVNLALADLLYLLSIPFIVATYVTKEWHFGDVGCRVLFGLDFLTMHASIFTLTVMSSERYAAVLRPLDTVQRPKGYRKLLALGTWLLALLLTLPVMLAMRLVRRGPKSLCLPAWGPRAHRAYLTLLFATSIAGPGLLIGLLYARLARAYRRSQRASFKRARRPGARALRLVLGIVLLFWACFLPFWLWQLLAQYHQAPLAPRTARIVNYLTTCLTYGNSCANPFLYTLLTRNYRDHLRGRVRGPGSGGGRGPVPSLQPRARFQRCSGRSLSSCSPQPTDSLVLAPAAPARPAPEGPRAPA

[2] = target: T2, Urotensin-2 receptor (Rattus norvegicus) (UniProt P49684); assay: Agonist activity at UT receptor in rat aorta assessed as contraction; type: tissue-based
T2 sequence (whole entry): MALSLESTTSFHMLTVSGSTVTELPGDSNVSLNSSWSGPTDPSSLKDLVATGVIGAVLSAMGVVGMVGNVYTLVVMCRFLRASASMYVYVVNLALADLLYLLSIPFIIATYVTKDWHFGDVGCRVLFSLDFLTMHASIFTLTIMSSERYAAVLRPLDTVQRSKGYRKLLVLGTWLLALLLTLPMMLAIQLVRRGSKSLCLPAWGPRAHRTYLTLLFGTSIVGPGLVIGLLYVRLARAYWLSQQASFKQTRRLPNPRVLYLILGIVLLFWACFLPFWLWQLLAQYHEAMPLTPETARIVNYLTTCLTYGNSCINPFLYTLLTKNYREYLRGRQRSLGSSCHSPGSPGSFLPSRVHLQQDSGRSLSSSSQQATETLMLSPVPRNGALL

[3] = target: T2, Urotensin-2 receptor (Rattus norvegicus); assay: Agonist activity at UT receptor in rat aorta assessed as contraction relative to urotensin-2; type: tissue-based
[4] = target: T2, Urotensin-2 receptor (Rattus norvegicus); assay: Competitive antagonist activity at UT receptor in rat aorta assessed as effect on urotensin-2-induced contraction; type: tissue-based
[5] = target: T3, Urotensin-2 receptor (Homo sapiens) (UniProt Q9UKP6); assay: Partial agonist activity at human recombinant UT receptor expressed in CHO-K1 cells assessed as stimulation of intracellular calcium mobilization by FLIPR assay; type: functional, cell-based
T3 sequence (whole entry): T1 sequence (Q9UKP6 whole entry)

[6] = target: T3, Urotensin-2 receptor (Homo sapiens); assay: Partial agonist activity at human recombinant UT receptor expressed in CHO-K1 cells assessed as stimulation of intracellular calcium mobilization at 1 uM by FLIPR assay relative to urotensin-2; type: functional, cell-based
[7] = target: T3, Urotensin-2 receptor (Homo sapiens); assay: Partial agonist activity at human recombinant UT receptor expressed in CHO-K1 cells assessed as stimulation of intracellular calcium mobilization at 10 uM by FLIPR assay relative to urotensin-2; type: functional, cell-based
[8] = Stability in 25% fetal calf serum assessed as parent compound remaining at 80 uM at 37 degC after 16 hrs by RP-HPLC-UV based detection assay; type: ADME, Bos taurus; settings: cattle, read-out: Stability
[9] = Stability in 25% fetal calf serum assessed as parent compound remaining at 80 uM at 37 degC after 36 hrs by RP-HPLC-UV based detection assay; type: ADME, Bos taurus; settings: cattle, read-out: Stability

## CC(C)[C@H](NC(=O)[C@@H]1CSSC(C)(C)[C@H](NC(=O)[C@@H](N)CC(=O)O)C(=O)N[C@@H](Cc2ccccc2)C(=O)N[C@H](Cc2c[nH]c3ccccc23)C(=O)N[C@@H](CCCN)C(=O)N[C@@H](Cc2ccc(C#N)cc2)C(=O)N1)C(=O)O
[1]
  Ki: 12 nM
[2]
  pEC50: inactive
[3]
  Emax: 0%
[4]
  pKb: 8.15
[5]
  Activity: Active
[6]
  Efficacy: 61.4%
[7]
  Efficacy: 61.7%
[8]
  remaining at 16 h, 80 µM: > 70%
[9]
  remaining at 36 h, 80 µM: > 50%
